In PMC6366416, “Synthesis and in vitro anticancer activity of certain novel 1-(2-methyl-6-arylpyridin-3-yl)-3-phenylureas as apoptosis-inducing agents” (Journal of Enzyme Inhibition and Medicinal Chemistry, 2019):

Legend:
Experiment in all cases: NCI one-dose SRB growth inhibition
Format in all cases: cell-based
786-0 = conditions: Homo sapiens, Renal Cancer, 48 h, read-out: GI% 786-0
Protocol: (§1) The antitumor assay was performed according to the protocol of the Drug Evaluation Branch, NCI, Bethesda[24–26]. A 48 h drug exposure protocol was adopted, and sulforhodamine B (SRB) assay[27] was utilized to assess the cell growth and viability, as reported earlier[17]^,[28].
(§2) The structures of all the newly synthesized pyridines 5a–l were submitted to the National Cancer Institute (NCI) Developmental Therapeutic Program (www.dtp.nci.nih.gov). […] Nine different types of cancer were tested in this assay: colon, ovarian, prostate, leukemia, melanoma, CNS, renal, breast and lung cancers. A 48 h drug exposure protocol was adopted, and sulforhodamine B (SRB) assay[27] was utilized to assess the cell growth and viability.

A549/ATCC = conditions: Homo sapiens, A549, 48 h, Non-Small Cell Lung Cancer, read-out: GI% A549/ATCC
Protocol: as §1, §2

CCRF-CEM = conditions: Homo sapiens, Leukemia, 48 h, read-out: GI% CCRF-CEM
Protocol: as §1, §2

EKVX = conditions: Homo sapiens, Non-Small Cell Lung Cancer, 48 h, read-out: GI% EKVX
Protocol: as §1, §2

HCC-2998 = conditions: Homo sapiens, Colon Cancer, 48 h, read-out: GI% HCC-2998
Protocol: as §1, §2

HOP-62 = conditions: Homo sapiens, Non-Small Cell Lung Cancer, 48 h, read-out: GI% HOP-62
Protocol: as §1, §2

HOP-92 = conditions: Homo sapiens, Non-Small Cell Lung Cancer, 48 h, read-out: GI% HOP-92
Protocol: as §1, §2

HS 578T = conditions: Homo sapiens, Breast Cancer, 48 h, read-out: GI% HS 578T
Protocol: as §1, §2

HT29 = conditions: Homo sapiens, HT-29, 48 h, Colon Cancer, read-out: GI% HT29
Protocol: as §1, §2

K-562 = conditions: Homo sapiens, K562, 48 h, Leukemia, read-out: GI% K-562
Protocol: as §1, §2

M14 = conditions: Homo sapiens, M14, 48 h, Melanoma, read-out: GI% M14
Protocol: as §1, §2

MALME-3M = conditions: Homo sapiens, Melanoma, 48 h, read-out: GI% MALME-3M
Protocol: as §1, §2

MDA-MB-468 = conditions: Homo sapiens, Breast Cancer, 48 h, read-out: GI% MDA-MB-468
Protocol: as §1, §2

NCI-H226 = conditions: Homo sapiens, Non-Small Cell Lung Cancer, 48 h, read-out: GI% NCI-H226
Protocol: as §1, §2

NCI-H23 = conditions: Homo sapiens, Non-Small Cell Lung Cancer, 48 h, read-out: GI% NCI-H23
Protocol: as §1, §2

NCI-H460 = conditions: Homo sapiens, Non-Small Cell Lung Cancer, 48 h, read-out: GI% NCI-H460
Protocol: as §1, §2

NCI/ADR-RES = conditions: Homo sapiens, Ovarian Cancer, 48 h, read-out: GI% NCI/ADR-RES
Protocol: as §1, §2

OVCAR-3 = conditions: Homo sapiens, OVCAR-3, 48 h, Ovarian Cancer, read-out: GI% OVCAR-3
Protocol: as §1, §2

OVCAR-4 = conditions: Homo sapiens, Ovarian Cancer, 48 h, read-out: GI% OVCAR-4
Protocol: as §1, §2

OVCAR-5 = conditions: Homo sapiens, Ovarian Cancer, 48 h, read-out: GI% OVCAR-5
Protocol: as §1, §2

OVCAR-8 = conditions: Homo sapiens, Ovarian Cancer, 48 h, read-out: GI% OVCAR-8
Protocol: as §1, §2

PC-3 = conditions: Homo sapiens, PC-3, 48 h, Prostate, read-out: GI% PC-3
Protocol: as §1, §2

RPMI-8226 = conditions: Homo sapiens, RPMI-8226, 48 h, Leukemia, read-out: GI% RPMI-8226
Protocol: as §1, §2

RXF 393 = conditions: Homo sapiens, Renal Cancer, 48 h, read-out: GI% RXF 393
Protocol: as §1, §2

SF-268 = conditions: Homo sapiens, CNS Cancer, 48 h, read-out: GI% SF-268
Protocol: as §1, §2

SF-295 = conditions: Homo sapiens, CNS Cancer, 48 h, read-out: GI% SF-295
Protocol: as §1, §2

SK-MEL-28 = conditions: Homo sapiens, Melanoma, 48 h, read-out: GI% SK-MEL-28
Protocol: as §1, §2

SK-MEL-2 = conditions: Homo sapiens, Melanoma, 48 h, read-out: GI% SK-MEL-2
Protocol: as §1, §2

SNB-19 = conditions: Homo sapiens, CNS Cancer, 48 h, read-out: GI% SNB-19
Protocol: as §1, §2

SNB-75 = conditions: Homo sapiens, CNS Cancer, 48 h, read-out: GI% SNB-75
Protocol: as §1, §2

T-47D = conditions: Homo sapiens, T47D, 48 h, Breast Cancer, read-out: GI% T-47D
Protocol: as §1, §2

TK-10 = conditions: Homo sapiens, Renal Cancer, 48 h, read-out: GI% TK-10
Protocol: as §1, §2

UO-31 = conditions: Homo sapiens, Renal Cancer, 48 h, read-out: GI% UO-31
Protocol: as §1, §2

SMILES: Cc1nc(-c2ccc(F)cc2)ccc1NC(=O)Nc1cccc(C(F)(F)F)c1 [Compound 5a, 1-(6-(4-Fluorophenyl)-2-methylpyridin-3-yl)-3-(3-(trifluoromethyl)phenyl)urea]
- inhibition at 10 µM (786-0): < 10%
- inhibition at 10 µM (A549/ATCC): > 40%
- inhibition at 10 µM (CCRF-CEM): 25%
- inhibition at 10 µM (EKVX): 17%
- inhibition at 10 µM (HCC-2998): < 10%
- inhibition at 10 µM (HOP-62): 31%
- inhibition at 10 µM (HOP-92): < 10%
- inhibition at 10 µM (HS 578T): < 10%
- inhibition at 10 µM (HT29): > 40%
- inhibition at 10 µM (K-562): > 40%
- inhibition at 10 µM (M14): > 40%
- inhibition at 10 µM (MALME-3M): < 10%
- inhibition at 10 µM (MDA-MB-468): 32%
- inhibition at 10 µM (NCI-H226): 18%
- inhibition at 10 µM (NCI-H23): 24%
- inhibition at 10 µM (NCI-H460): 34%
- inhibition at 10 µM (NCI/ADR-RES): 20%
- inhibition at 10 µM (OVCAR-3): > 40%
- inhibition at 10 µM (OVCAR-4): 30%
- inhibition at 10 µM (OVCAR-5): < 10%
- inhibition at 10 µM (OVCAR-8): 29%
- inhibition at 10 µM (PC-3): > 40%
- inhibition at 10 µM (RPMI-8226): > 40%
- inhibition at 10 µM (RXF 393): < 10%
- inhibition at 10 µM (SF-268): < 10%
- inhibition at 10 µM (SF-295): 17%
- inhibition at 10 µM (SK-MEL-28): 20%
- inhibition at 10 µM (SK-MEL-2): < 10%
- inhibition at 10 µM (SNB-19): 15%
- inhibition at 10 µM (SNB-75): < 10%
- inhibition at 10 µM (T-47D): > 40%
- inhibition at 10 µM (TK-10): < 10%
- inhibition at 10 µM (UO-31): 15%

SMILES: CCOC(=O)c1ccc(NC(=O)Nc2ccc(-c3ccc(F)cc3)nc2C)cc1 [Compound 5c, Ethyl 4-(3-(6-(4-fluorophenyl)-2-methylpyridin-3-yl)ureido)benzoate]
- inhibition at 10 µM (786-0): < 10%
- inhibition at 10 µM (A549/ATCC): 25%
- inhibition at 10 µM (CCRF-CEM): < 10%
- inhibition at 10 µM (EKVX): < 10%
- inhibition at 10 µM (HCC-2998): < 10%
- inhibition at 10 µM (HOP-62): < 10%
- inhibition at 10 µM (HOP-92): < 10%
- inhibition at 10 µM (HS 578T): < 10%
- inhibition at 10 µM (HT29): 18%
- inhibition at 10 µM (K-562): < 10%
- inhibition at 10 µM (M14): 38%
- inhibition at 10 µM (MALME-3M): < 10%
- inhibition at 10 µM (MDA-MB-468): < 10%
- inhibition at 10 µM (NCI-H226): 12%
- inhibition at 10 µM (NCI-H23): < 10%
- inhibition at 10 µM (NCI-H460): < 10%
- inhibition at 10 µM (NCI/ADR-RES): < 10%
- inhibition at 10 µM (OVCAR-3): < 10%
- inhibition at 10 µM (OVCAR-4): < 10%
- inhibition at 10 µM (OVCAR-5): < 10%
- inhibition at 10 µM (OVCAR-8): < 10%
- inhibition at 10 µM (PC-3): < 10%
- inhibition at 10 µM (RPMI-8226): 13%
- inhibition at 10 µM (RXF 393): < 10%
- inhibition at 10 µM (SF-268): < 10%
- inhibition at 10 µM (SF-295): < 10%
- inhibition at 10 µM (SK-MEL-28): < 10%
- inhibition at 10 µM (SK-MEL-2): < 10%
- inhibition at 10 µM (SNB-19): < 10%
- inhibition at 10 µM (SNB-75): < 10%
- inhibition at 10 µM (T-47D): < 10%
- inhibition at 10 µM (TK-10): < 10%
- inhibition at 10 µM (UO-31): < 10%
